Measurements from patent publication US20250340554A1, “5-Amino-1H-Pyrrolo[3,2-b]Pyridine-2-Carboxamide Derivatives as MTA-Cooperative Inhibitors of PRMT5” (BeOne Medicines I GmbH, priority 2023, published 2025).

Tests used:
[1] = system: HCT116-mock-RNA-KO; experiment: Compounds cell killing in HCT116 isogenic pair (Cell Titer-Glo viability), mock-RNA-KO cells (MTAP wildtype); format: cell-based; settings: Homo sapiens, HCT-116, 144 h, 6 days, 0-10 μM compound
Text: (§1) HCT116 cell line was obtained from ATCC (CCL-247). It has a mutation in codon 13 of the ras proto-oncogene and can be used as a positive control for PCR assays of mutation in this codon. HCT116-MTAP-KO was knocked-out-MTAP-gene based HCT116, and one single clone was passed for this assay. HCT116-mock-RNA-KO was knocked-out-mock-gene based HCT116 with MTAP wildtype genotype. The base medium for HCT116 isogenic pair is RPMI 1640, HEPES (Gibco, 22400105). To make the complete growth medium, add the following components to the base medium: fetal bovine serum to a final concentration of 10% (Gibco, 10099-141C). The cell line was grown in a humidified 5% CO2 atmosphere at 37° C. and regularly tested for the presence of mycoplasma with MycoAlert™ PLUS Mycoplasma Detection Kit (Lonza, LT07-710).
(§2) • Seed HCT116-mock-RNA-KO (400/well) or HCT116-MTAP-KO (400/well) cells into a 96-well plate (Greiner: 655090), 100 μL/well. • Incubate at 37° C., 5% CO2, overnight. • Add 50 μL fresh growth-medium containing serial dilution of compounds for a final compound concentration of 0-10 μM to each well. • Incubate at 37° C., 5% CO2, 6 days. • The cell viability detected by Cell Titer-Glo (Promega, G7573). Add 70 μL of CellTiter-Glo® reagent in each well. • Incubate at room temperature for 10 minutes to stabilize luminescent signal. • Analyze with Microplate Reader (TECAN, SPARK) and fit IC50 using Prism® 9.

[2] = system: HCT116-MTAP-KO; experiment: Compounds cell killing in HCT116 isogenic pair (Cell Titer-Glo viability), MTAP-KO cells; format: cell-based; settings: Homo sapiens, HCT-116, 144 h, 6 days, 0-10 μM compound, * = more than 50% viability inhibition at tested concentration without a full curve
Text: as §1, §2

Cc1cc2[nH]c(C(=O)N(Cc3ccc(-c4c(F)c(F)c(F)c(F)c4F)cn3)[C@@H]3CCCc4cccnc43)cc2nc1N [Example A11, (R)-5-amino-6-methyl-N-((5-(perfluorophenyl)pyridin-2-yl)methyl)-N-(5,6,7,8-tetrahydroquinolin-8-yl)-1H-pyrrolo[3,2-b]pyridine-2-carboxamide]
IC50 [1]: 1470 nM
IC50 [2]: < 4.6 nM

Nc1nc2cc(C(=O)N(Cc3ccc(-c4c(F)cccc4F)cn3)[C@@H]3CCCc4cccnc43)[nH]c2cc1Br [Example A12, (R)-5-amino-6-bromo-N-((5-(2,6-difluorophenyl)pyridin-2-yl)methyl)-N-(5,6,7,8-tetrahydroquinolin-8-yl)-1H-pyrrolo[3,2-b]pyridine-2-carboxamide]
IC50 [1]: 661 nM
IC50 [2]: < 4.6 nM

Cc1cc2[nH]c(C(=O)N(Cc3ccc(-c4ncnn4C)cn3)[C@@H]3CCCc4cccnc43)cc2nc1N [Example A13, (R)-5-amino-6-methyl-N-((5-(1-methyl-1H-1,2,4-triazol-5-yl)pyridin-2-yl)methyl)-N-(5,6,7,8-tetrahydroquinolin-8-yl)-1H-pyrrolo[3,2-b]pyridine-2-carboxamide]
IC50 [1]: > 10000 nM
IC50 [2]: 83 nM

Cc1cc2[nH]c(C(=O)N(Cc3ccc(-c4c(F)cccc4Cl)cn3)C3CCCc4cccnc43)cc2nc1N (stereo not shown) [Example A14, 5-amino-N-((5-(2-chloro-6-fluorophenyl)pyridin-2-yl)methyl)-6-methyl-N-(5,6,7,8-tetrahydroquinolin-8-yl)-1H-pyrrolo[3,2-b]pyridine-2-carboxamide]
IC50 [1]: 1120 nM
IC50 [2]: 2.9 nM

Cc1cc2[nH]c(C(=O)N(Cc3ccc(-c4c(F)cccc4C#N)cn3)C3CCCc4cccnc43)cc2nc1N (stereo not shown) [Example A15, 5-amino-N-((5-(2-cyano-6-fluorophenyl)pyridin-2-yl)methyl)-6-methyl-N-(5,6,7,8-tetrahydroquinolin-8-yl)-1H-pyrrolo[3,2-b]pyridine-2-carboxamide]
IC50 [1]: 424 nM
IC50 [2]: 4.3 nM

Cc1cc2[nH]c(C(=O)N(Cc3ccc(-c4ccccn4)cn3)C3CCCc4cccnc43)cc2nc1N (stereo not shown) [Example A16, N-([2,3′-bipyridin]-6′-ylmethyl)-5-amino-6-methyl-N-(5,6,7,8-tetrahydroquinolin-8-yl)-1H-pyrrolo[3,2-b]pyridine-2-carboxamide]
IC50 [1]: 1640 nM
IC50 [2]: 17 nM

Cc1cc2[nH]c(C(=O)N(Cc3ccc(-c4c(F)cccc4F)cn3)[C@@H]3CCCc4cccnc43)c(F)c2nc1N [Example A17, (R)-5-amino-N-((5-(2,6-difluorophenyl)pyridin-2-yl)methyl)-3-fluoro-6-methyl-N-(5,6,7,8-tetrahydroquinolin-8-yl)-1H-pyrrolo[3,2-b]pyridine-2-carboxamide]
IC50 [1]: 2840 nM
IC50 [2]: 66 nM

Cc1cc2[nH]c(C(=O)N(Cc3ccc(-c4c(C)cnn4C)cc3F)C3CCCc4cccnc43)cc2nc1N (stereo not shown) [Example A18, 5-amino-N-(4-(1,4-dimethyl-1H-pyrazol-5-yl)-2-fluorobenzyl)-6-methyl-N-(5,6,7,8-tetrahydroquinolin-8-yl)-1H-pyrrolo[3,2-b]pyridine-2-carboxamide]
IC50 [1]: 2580 nM
IC50 [2]: 21 nM

Cc1cc2[nH]c(C(=O)N(Cc3ccc(-c4c(F)cccc4F)cn3)[C@@H]3CCCc4cccnc43)c(I)c2nc1N [Example A19, (R)-5-amino-N-((5-(2,6-difluorophenyl)pyridin-2-yl)methyl)-3-iodo-6-methyl-N-(5,6,7,8-tetrahydroquinolin-8-yl)-1H-pyrrolo[3,2-b]pyridine-2-carboxamide]
IC50 [1]: 288 nM
IC50 [2]: < 4.6 nM

Cc1cc2[nH]c(C(=O)N(Cc3ccc(-c4ccccc4)cn3)C3CCC3)cc2nc1N [Example B1, 5-amino-N-cyclobutyl-6-methyl-N-((5-phenylpyridin-2-yl)methyl)-1H-pyrrolo[3,2-b]pyridine-2-carboxamide]
IC50 [1]: > 10000 nM
IC50 [2]: 359 nM

COCC(COC)N(Cc1ccc(-c2c(F)cccc2F)cn1)C(=O)c1cc2nc(N)c(C)cc2[nH]1 [Example B2, 5-amino-N-((5-(2,6-difluorophenyl)pyridin-2-yl)methyl)-N-(1,3-dimethoxypropan-2-yl)-6-methyl-1H-pyrrolo[3,2-b]pyridine-2-carboxamide]
IC50 [1]: 1220 nM
IC50 [2]: 5.5 nM

Cc1cc2[nH]c(C(=O)N(Cc3ccc(-c4c(F)cccc4F)cn3)C3CC(F)(F)C3)cc2nc1N [Example B3, 5-amino-N-(3,3-difluorocyclobutyl)-N-((5-(2,6-difluorophenyl)pyridin-2-yl)methyl)-6-methyl-1H-pyrrolo[3,2-b]pyridine-2-carboxamide]
IC50 [1]: > 10000 nM
IC50 [2]: 864 nM

Cc1cc2[nH]c(C(=O)N(Cc3ccc(-c4ccccc4)cn3)C3CC3)cc2nc1N [Example B4, 5-amino-N-cyclopropyl-6-methyl-N-((5-phenylpyridin-2-yl)methyl)-1H-pyrrolo[3,2-b]pyridine-2-carboxamide]
IC50 [1]: > 10000 nM
IC50 [2]: 7820 nM

Cc1cc2[nH]c(C(=O)N(Cc3ccc(-c4c(F)cccc4F)cn3)CC3CC3)cc2nc1N [Example B5, 5-amino-N-(cyclopropylmethyl)-N-((5-(2,6-difluorophenyl)pyridin-2-yl)methyl)-6-methyl-1H-pyrrolo[3,2-b]pyridine-2-carboxamide]
IC50 [1]: 3620 nM
IC50 [2]: 606 nM

CO[C@H]1C[C@H](N(Cc2ccc(-c3ccccc3)cn2)C(=O)c2cc3nc(N)c(C)cc3[nH]2)C1 [Example B6, 5-amino-N-((1r,3r)-3-methoxycyclobutyl)-6-methyl-N-((5-phenylpyridin-2-yl)methyl)-1H-pyrrolo[3,2-b]pyridine-2-carboxamide]
IC50 [1]: > 10000 nM
IC50 [2]: 1730 nM

CO[C@H]1C[C@@H](N(Cc2ccc(-c3ccccc3)cn2)C(=O)c2cc3nc(N)c(C)cc3[nH]2)C1 [Example B7, 5-amino-N-((1s,3s)-3-methoxycyclobutyl)-6-methyl-N-((5-phenylpyridin-2-yl)methyl)-1H-pyrrolo[3,2-b]pyridine-2-carboxamide]
IC50 [1]: > 10000 nM
IC50 [2]: 2050 nM

Cc1cc2[nH]c(C(=O)N(Cc3ccc(-c4ccccc4)cn3)C3CCCOC3)cc2nc1N (stereo not shown) [Example B8, 5-amino-6-methyl-N-((5-phenylpyridin-2-yl)methyl)-N-(tetrahydro-2H-pyran-3-yl)-1H-pyrrolo[3,2-b]pyridine-2-carboxamide]
IC50 [1]: > 10000 nM
IC50 [2]: 1350 nM
